≈ marks a conversion by molar mass, not a printed value.
Legend:
S. aureus VRSA = assay: MIC, broth microdilution, vancomycin-resistant S. aureus (VRSA); format: cell-based, Staphylococcus aureus; conditions: for MIC: Staphylococcus aureus VRSA, read-out: MIC; for MIC-fold improvement vs. vancomycin: VRSA, ratio of MIC of vancomycin and MIC of analogue
Method in brief: (§1)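 Following CLSI antimicrobial susceptibility standards, organisms were tested by broth microdilution. Controls comprised ultrapure water plus broth left uninoculated. For a single condition, 10 μM vancomycin (final) accompanied the analog or control agent.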

[1] = test system: L1210, CEM and HeLa cell lines; assay: Cytostatic activity, average or summary over L1210, CEM and HeLa; format: cell-based; conditions: average of L1210, CEM and HeLa; read-out: Toxicity (IC50) Average
Method in brief: (§2)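 Readout: Coulter cell number after drug exposure at 37°C. Durations differ by line (L1210 2 days; CEM 3 days; HeLa 4 days). Stock suspension 300,000–500,000 cells/mL, diluted by mixing with compound. Endpoint: IC50 vs negative control.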

[2] = test system: S. aureus VSSA (ATCC 6538); assay: MIC, broth microdilution, vancomycin-sensitive S. aureus (VSSA/MSSA, ATCC 6538); format: cell-based, Staphylococcus aureus; conditions: for MIC: Staphylococcus aureus VSSA, read-out: MIC; for MIC-fold improvement vs. vancomycin: VSSA, ratio of MIC of vancomycin and MIC of analogue
Method in brief: as §1

[3] = test system: human cervix carcinoma (HeLa) cells; assay: Cytostatic activity, HeLa cell proliferation; format: cell-based; conditions: mean ± SD of three experiments; highest concentration tested 250 µM; 4 days; read-out: Toxicity (IC50) HeLa
Method in brief: as §2

MRSA KS1 = assay: MIC, broth microdilution, MRSA KS1; format: cell-based, Staphylococcus aureus; conditions: for MIC-fold improvement vs. vancomycin: MRSA KS1, ratio of MIC of vancomycin and MIC of analogue; for MIC: Staphylococcus aureus MRSA KS1, read-out: MIC
Method in brief: as §1

MRSA KS6 = assay: MIC, broth microdilution, MRSA KS6; format: cell-based, Staphylococcus aureus; conditions: for MIC-fold improvement vs. vancomycin: MRSA KS6, ratio of MIC of vancomycin and MIC of analogue; for MIC: Staphylococcus aureus MRSA KS6, read-out: MIC
Method in brief: as §1

E. faecalis VRE 53 = assay: MIC, broth microdilution, vancomycin-resistant E. faecalis VRE 53 (VanA); format: cell-based, Enterococcus faecalis; conditions: for MIC: Enterococcus faecalis VRE 53 (vancomycin-resistant), read-out: MIC; for MIC-fold improvement vs. vancomycin: VRE 53, ratio of MIC of vancomycin and MIC of analogue
Method in brief: as §1

MRSA KS2 = assay: MIC, broth microdilution, MRSA KS2; format: cell-based, Staphylococcus aureus; conditions: for MIC-fold improvement vs. vancomycin: MRSA KS2, ratio of MIC of vancomycin and MIC of analogue; for MIC: Staphylococcus aureus MRSA KS2, read-out: MIC
Method in brief: as §1

MRSA KS89 = assay: MIC, broth microdilution, MRSA KS89; format: cell-based, Staphylococcus aureus; conditions: for MIC-fold improvement vs. vancomycin: MRSA KS8, ratio of MIC of vancomycin and MIC of analogue; for MIC: Staphylococcus aureus MRSA KS8, read-out: MIC
Method in brief: as §1

[4] = test system: human T-lymphocyte (CEM) cells; assay: Cytostatic activity, CEM cell proliferation; format: cell-based; conditions: mean ± SD of three experiments; highest concentration tested 250 µM; 3 days; read-out: Toxicity (IC50) CEM
Method in brief: as §2

E. faecalis VRE 6 = assay: MIC, broth microdilution, vancomycin-resistant E. faecalis VRE 6 (VanA); format: cell-based, Enterococcus faecalis; conditions: for MIC: Enterococcus faecalis VRE 6 (vancomycin-resistant), read-out: MIC; for MIC-fold improvement vs. vancomycin: VRE 6, ratio of MIC of vancomycin and MIC of analogue
Method in brief: as §1

[5] = test system: Murine leukemia (L1210) cells; assay: Cytostatic activity, L1210 cell proliferation; format: cell-based; conditions: mean ± SD of three experiments; highest concentration tested 250 µM; 2 days; read-out: Toxicity (IC50) L1210
Method in brief: as §2

E. faecalis VSE 1 = assay: MIC, broth microdilution, vancomycin-sensitive E. faecalis (VSE 1); format: cell-based, Enterococcus faecalis; conditions: for MIC: Enterococcus faecalis VSE 1 (vancomycin-sensitive), read-out: MIC; for MIC-fold improvement vs. vancomycin: VSE 1, ratio of MIC of vancomycin and MIC of analogue
Method in brief: as §1

S. aureus VISA/HIP5827 = assay: MIC, broth microdilution, vancomycin-intermediate S. aureus VISA HIP5827; format: cell-based, Staphylococcus aureus; conditions: for MIC: Staphylococcus aureus VISA/HIP5827, read-out: MIC; for MIC-fold improvement vs. vancomycin: VISA/HIP5827, ratio of MIC of vancomycin and MIC of analogue
Method in brief: as §1

E. faecalis VRE 37 = assay: MIC, broth microdilution, vancomycin-resistant E. faecalis VRE 37 (VanA); format: cell-based, Enterococcus faecalis; conditions: for MIC: Enterococcus faecalis VRE 37 (vancomycin-resistant), read-out: MIC
Method in brief: as §1

E. faecalis VRE 29 = assay: MIC, broth microdilution, vancomycin-resistant E. faecalis VRE 29 (VanA); format: cell-based, Enterococcus faecalis; conditions: for MIC: Enterococcus faecalis VRE 29 (vancomycin-resistant), read-out: MIC; for MIC-fold improvement vs. vancomycin: VRE 29, ratio of MIC of vancomycin and MIC of analogue
Method in brief: as §1

CN[C@H](CC(C)C)C(=O)N[C@H]1C(=O)N[C@@H](CC(N)=O)C(=O)N[C@H]2C(=O)N[C@H]3C(=O)N[C@H](C(=O)N[C@H](C(=O)NCC(=O)Nc4ccc(NS(=O)(=O)c5ccc(Cl)cc5Cl)cc4)c4cc(O)cc(O)c4-c4cc3ccc4O)[C@H](O)c3ccc(c(Cl)c3)Oc3cc2cc(c3O[C@@H]2O[C@H](CO)[C@@H](O)[C@H](O)[C@H]2O[C@H]2C[C@](C)(N)[C@H](O)[C@H](C)O2)Oc2ccc(cc2Cl)[C@H]1O [Vanc-61]
MIC (S. aureus VRSA): 0.39 µM (≈ 0.704 µg/mL)
MIC-fold improvement vs. vancomycin (S. aureus VRSA): 256
IC50 [1]: 196 µM
MIC [2]: 0.20 µM (≈ 0.361 µg/mL)
MIC-fold improvement vs. vancomycin [2]: 4
IC50 [3]: 87 ± 37 µM
MIC-fold improvement vs. vancomycin (MRSA KS1): 2
MIC (MRSA KS1): 0.39 µM (≈ 0.704 µg/mL)
MIC-fold improvement vs. vancomycin (MRSA KS6): 2
MIC (MRSA KS6): 0.39 µM (≈ 0.704 µg/mL)
MIC (E. faecalis VRE 53): 6.25 µM (≈ 11.3 µg/mL)
MIC-fold improvement vs. vancomycin (E. faecalis VRE 53): 64
MIC-fold improvement vs. vancomycin (MRSA KS2): 4
MIC (MRSA KS2): 0.20 µM (≈ 0.361 µg/mL)
MIC-fold improvement vs. vancomycin (MRSA KS89): 2
MIC (MRSA KS89): 0.39 µM (≈ 0.704 µg/mL)
IC50 [4]: ≥ 250 µM
MIC (E. faecalis VRE 6): 3.13 µM (≈ 5.65 µg/mL)
MIC-fold improvement vs. vancomycin (E. faecalis VRE 6): 64
IC50 [5]: ≥ 250 µM
MIC (E. faecalis VSE 1): 0.39 µM (≈ 0.704 µg/mL)
MIC-fold improvement vs. vancomycin (E. faecalis VSE 1): 4
MIC (S. aureus VISA/HIP5827): 0.78 µM (≈ 1.41 µg/mL)
MIC-fold improvement vs. vancomycin (S. aureus VISA/HIP5827): 8
MIC (E. faecalis VRE 37): 12.5 µM (≈ 22.6 µg/mL)
MIC (E. faecalis VRE 29): 6.25 µM (≈ 11.3 µg/mL)
MIC-fold improvement vs. vancomycin (E. faecalis VRE 29): 64

CN[C@H](CC(C)C)C(=O)N[C@H]1C(=O)N[C@@H](CC(N)=O)C(=O)N[C@H]2C(=O)N[C@H]3C(=O)N[C@H](C(=O)N[C@H](C(=O)NCCNC(=O)/C=C/c4ccc(NS(=O)(=O)c5ccc(C(C)C)cc5)cc4)c4cc(O)cc(O)c4-c4cc3ccc4O)[C@H](O)c3ccc(c(Cl)c3)Oc3cc2cc(c3O[C@@H]2O[C@H](CO)[C@@H](O)[C@H](O)[C@H]2O[C@H]2C[C@](C)(N)[C@H](O)[C@H](C)O2)Oc2ccc(cc2Cl)[C@H]1O [Vanc-56]
MIC (S. aureus VRSA): 0.39 µM (≈ 0.709 µg/mL)
MIC-fold improvement vs. vancomycin (S. aureus VRSA): 256
IC50 [1]: 201 µM
MIC [2]: 0.39 µM (≈ 0.709 µg/mL)
MIC-fold improvement vs. vancomycin [2]: 2
IC50 [3]: 104 ± 17 µM
MIC-fold improvement vs. vancomycin (MRSA KS1): 1
MIC (MRSA KS1): 0.78 µM (≈ 1.42 µg/mL)
MIC-fold improvement vs. vancomycin (MRSA KS6): 4
MIC (MRSA KS6): 0.20 µM (≈ 0.364 µg/mL)
MIC (E. faecalis VRE 53): 6.25 µM (≈ 11.4 µg/mL)
MIC-fold improvement vs. vancomycin (E. faecalis VRE 53): 64
MIC-fold improvement vs. vancomycin (MRSA KS2): 4
MIC (MRSA KS2): 0.20 µM (≈ 0.364 µg/mL)
MIC-fold improvement vs. vancomycin (MRSA KS89): 2
MIC (MRSA KS89): 0.39 µM (≈ 0.709 µg/mL)
IC50 [4]: ≥ 250 µM
MIC (E. faecalis VRE 6): 3.13 µM (≈ 5.69 µg/mL)
MIC-fold improvement vs. vancomycin (E. faecalis VRE 6): 64
IC50 [5]: > 250 µM
MIC (E. faecalis VSE 1): 0.39 µM (≈ 0.709 µg/mL)
MIC-fold improvement vs. vancomycin (E. faecalis VSE 1): 4
MIC (S. aureus VISA/HIP5827): 0.78 µM (≈ 1.42 µg/mL)
MIC-fold improvement vs. vancomycin (S. aureus VISA/HIP5827): 8
MIC (E. faecalis VRE 37): 6.25 µM (≈ 11.4 µg/mL)
MIC-fold improvement vs. vancomycin (E. faecalis VRE 37; VRE 37, ratio of MIC of vancomycin and MIC of analogue): 64
MIC (E. faecalis VRE 29): 6.25 µM (≈ 11.4 µg/mL)
MIC-fold improvement vs. vancomycin (E. faecalis VRE 29): 64

From publication PMC6001238, “Iterative Chemical Engineering of Vancomycin Leads to Novel Vancomycin Analogs With a High in Vitro Therapeutic Index” (Frontiers in Microbiology, 2018)
